The text below walks through data of US9850283B2, “Macrocyclic inhibitors of the PD-1/PD-L1 and CD80(B7-1)/PD-L1 protein/protein interactions” (BRISTOL-MYERS SQUIBB COMPANY, priority 2013, dated 2017).

Assay [1] has as its target T1, LK35.2-hPD-L1 cells / PE-labeled PD-1-Ig (Homo sapiens, UniProt Q9NZQ7).
T1 construct: expressed in transfected cells; host or cells: LK35.2 mouse B cell line
Briefly: LK35.2-hPD-L1 cell binding high-content screening assay. It is filed as cell-based. Conditions: cluster symbol, read-out: CBA IC50 cluster. The essentials: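 Mouse LK35.2 B cells stably over-expressing human PD-L1, cultured overnight, treated with compound plus PE-labeled human PD-1-Ig (1 nM final) in RPMI/10% FCS for 1 h at 37 °C. After washing, bound fluorescence quantified by high-content imaging.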

Assay [2] addresses T2, Human PD-L1/PD-1 (Homo sapiens, UniProt Q9NZQ7).
T2 construct: made in house; host or cells: HEK293T
Nature of the assay: HTRF PD-1-Ig/PD-L1-His binding assay (human PD-L1). To be noted: cluster symbol; read-out: HTRF IC50 cluster. The gist of the method: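 Ig- and His-fused extracellular PD-1/PD-L1 binding in BSA/Tween-20 dPBS. HTRF with Eu anti-Ig (1 nM final) and APC anti-His (20 nM final).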

[3] abbreviates: cell binding assay, cell line not given.

Where two headings read alike, the source gives them in different places. Starred links: 1 amine or outer side, 2 acyl side, 3 side chain; linkers in the order of their positions; H or OH if unused. Positions of bridges follow the written chain, without caps; N, C: chain ends. Non-standard residues stand in square brackets, D forms with d. Residues, ends and D or L forms follow the SMILES beside them. ξ: configuration not given here. *: point of attachment. Phe(3,4,5-F3) = N[C@@H](Cc1cc(F)c(F)c(F)c1)C(=O)O; Phe(4-CH2NH2) = NCc1ccc(C[C@H](N)C(=O)O)cc1; Bta = N[C@@H](Cc1csc2ccccc12)C(=O)O; Hyp = O=C(O)[C@@H]1C[C@@H](O)CN1; NMeF = CN[C@@H](Cc1ccccc1)C(=O)O; X4 = O=C([C@H]1COCCN1[*:1])[*:2]; dHyp = O=C(O)[C@H]1C[C@H](O)CN1; NMeNle = CCCC[C@H](NC)C(=O)O; NMeM = CN[C@@H](CCSC)C(=O)O; NMeS = CN[C@@H](CO)C(=O)O; hSer = N[C@@H](CCO)C(=O)O; NMeA = CN[C@@H](C)C(=O)O; Orn = NCCC[C@H](N)C(=O)O; Dab = NCC[C@H](N)C(=O)O; Bn = c1ccc(C*)cc1; ξC = NC(CS)C(=O)O; Sar = CNCC(=O)O Where only a bound is given, the exact number is not on record here.

T1 sequence (Q9NZQ7 19-290): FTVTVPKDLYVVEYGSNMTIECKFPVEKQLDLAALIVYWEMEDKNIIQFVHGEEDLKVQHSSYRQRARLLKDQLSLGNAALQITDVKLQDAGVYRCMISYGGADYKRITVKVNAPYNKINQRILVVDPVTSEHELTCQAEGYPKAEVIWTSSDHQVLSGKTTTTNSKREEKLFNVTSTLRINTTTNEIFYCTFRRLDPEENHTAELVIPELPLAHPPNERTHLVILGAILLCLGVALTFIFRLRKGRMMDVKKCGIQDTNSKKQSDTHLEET
T2 sequence (Q9NZQ7 with tags, fused parts or gaps): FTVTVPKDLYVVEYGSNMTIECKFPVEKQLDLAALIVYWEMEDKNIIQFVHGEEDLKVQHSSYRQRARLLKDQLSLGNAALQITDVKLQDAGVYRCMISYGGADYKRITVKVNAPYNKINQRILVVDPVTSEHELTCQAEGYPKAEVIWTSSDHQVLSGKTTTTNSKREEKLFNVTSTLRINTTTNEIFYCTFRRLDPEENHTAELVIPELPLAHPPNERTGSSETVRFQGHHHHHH

Take `CCCC[C@H]1C(=O)N(C)[C@@H](CCCC)C(=O)N[C@@H](CCCNC(=N)N)C(=O)N[C@H](C(=O)NCC(N)=O)CSCC(=O)N[C@@H](Cc2ccccc2)C(=O)N(C)[C@@H](C)C(=O)N[C@@H](CC(N)=O)C(=O)N2CCC[C@H]2C(=O)N[C@@H](Cc2cnc[nH]2)C(=O)N[C@@H](CC(C)C)C(=O)N(C)CC(=O)N[C@@H](Cc2c[nH]c3ccccc23)C(=O)N[C@@H](CCN)C(=O)N[C@@H](Cc2c[nH]c3ccccc23)C(=O)N1C` [Example 5001] ({CH2CO}-F[NMeA]NPHL[Sar]W[Dab]W[NMeNle][NMeNle]RCG-NH2; thioether N-14): the results for the IC50 in assay [1] (setting [3]) and in assay [2] were 4.78 to 72.9 nM and 0.385 to 6.74 nM, respectively.
The corresponding values for `CCCC[C@H]1C(=O)N(C)[C@@H](CCCC)C(=O)N[C@@H](CCC(=O)O)C(=O)N[C@H](C(=O)NCC(N)=O)CSCC(=O)N[C@@H](Cc2ccc(O)cc2)C(=O)N(C)[C@@H](C)C(=O)N[C@@H](CCN)C(=O)N2CCC[C@H]2C(=O)N[C@@H](Cc2c[nH]cn2)C(=O)N[C@@H](CCC(=O)O)C(=O)N2C[C@H](O)C[C@H]2C(=O)N[C@@H](Cc2c[nH]c3ccccc23)C(=O)N[C@@H](CCCCN)C(=O)N[C@@H](Cc2c[nH]c3ccccc23)C(=O)N1C` [Example 5112] ({CH2CO}-Y[NMeA][Dab]PHE[Hyp]WKW[NMeNle][NMeNle]ECG-NH2; thioether N-14) are 0.158 to 4.71 nM and 0.385 to 6.74 nM.
With `CCCC[C@H]1C(=O)N(C)[C@@H](CCSC)C(=O)N[C@@H](CCCNC(=N)N)C(=O)NC(C(=O)NCC(N)=O)CSCC(=O)N[C@@H](Cc2ccc(O)cc2)C(=O)N(C)[C@@H](C)C(=O)N[C@@H](CC(N)=O)C(=O)N2CCC[C@H]2C(=O)N[C@@H](Cc2cnc[nH]2)C(=O)N[C@@H](CO)C(=O)N2CCC[C@H]2C(=O)N[C@@H](Cc2c[nH]c3ccccc23)C(=O)N[C@@H](CO)C(=O)N[C@@H](Cc2c[nH]c3ccccc23)C(=O)N1C` (stereo partly shown) [Example 9105] ({CH2CO}-Y[NMeA]NPHSPWSW[NMeNle][NMeM]R[ξC]G-NH2; thioether N-14), the IC50 lay within 4.78 to 72.9 nM in assay [1] (setting [3]) and 0.385 to 6.74 nM in assay [2].
Take `CCCC[C@H]1C(=O)N(C)CC(=O)N[C@@H](CC(=O)O)C(=O)N[C@@H](C(C)C)C(=O)N(C)[C@@H](Cc2ccccc2)C(=O)N[C@@H](Cc2ccc(O)cc2)C(=O)N(C)CC(=O)N[C@@H](Cc2ccc(CN)cc2)C(=O)N[C@@H](Cc2ccc(O)cc2)C(=O)N[C@@H](CC(C)C)C(=O)N[C@H](C(=O)NCC(N)=O)CSCC(=O)N[C@@H](Cc2ccccc2)C(=O)N(C)[C@@H](Cc2ccccc2)C(=O)N1C` [Example 3513] ({CH2CO}-F[NMeF][NMeNle][Sar]DV[NMeF]Y[Sar][Phe(4-CH2NH2)]YLCG-NH2; thioether N-13): the IC50 in assay [1] (setting [3]) was greater than 74.3 nM; in assay [2], greater than 30.5 nM.
Take `CCCC[C@H]1C(=O)N(C)[C@@H](CCCC)C(=O)N[C@@H](CCCNC(=N)N)C(=O)N[C@H](C(=O)NCC(N)=O)CSCC(=O)N[C@@H](Cc2ccc(O)cc2)C(=O)N(C)[C@@H](C)C(=O)N[C@@H](CC(N)=O)C(=O)N2CCC[C@H]2C(=O)N[C@@H](Cc2cnc[nH]2)C(=O)N[C@@H](CCCCN)C(=O)N2C[C@H](O)C[C@H]2C(=O)N[C@@H](Cc2c[nH]c3ccccc23)C(=O)N[C@@H](CO)C(=O)N[C@@H](Cc2c[nH]c3ccccc23)C(=O)N1C` [Example 5024] ({CH2CO}-Y[NMeA]NPHK[Hyp]WSW[NMeNle][NMeNle]RCG-NH2; thioether N-14): the IC50 was 0.158 to 4.71 nM in assay [1] (setting [3]) and 0.385 to 6.74 nM in assay [2].
For `CCCC[C@H]1C(=O)N(C)[C@@H](CCCC)C(=O)N[C@@H](CCCNC(=N)N)C(=O)N[C@H](C(=O)NCC(N)=O)CSCC(=O)N[C@@H](Cc2ccc(O)cc2)C(=O)N(C)[C@@H](C)C(=O)N[C@@H](CCCN)C(=O)N2CCC[C@H]2C(=O)N[C@@H](Cc2c[nH]cn2)C(=O)N[C@@H](CCC(=O)O)C(=O)N2C[C@H](O)C[C@H]2C(=O)N[C@@H](Cc2c[nH]c3ccccc23)C(=O)N[C@@H](CO)C(=O)N[C@@H](Cc2c[nH]c3ccccc23)C(=O)N1C` [Example 5113] ({CH2CO}-Y[NMeA][Orn]PHE[Hyp]WSW[NMeNle][NMeNle]RCG-NH2; thioether N-14), in that order: 0.158 to 4.71 nM and 0.385 to 6.74 nM.
For `CCCC[C@H]1C(=O)N(C)[C@@H](CCCC)C(=O)N[C@@H](CCCNC(=N)N)C(=O)NC(C(=O)NCC(N)=O)CSCC(=O)N[C@@H](Cc2ccc(O)cc2)C(=O)N(C)[C@@H](C)C(=O)N[C@@H](CC(N)=O)C(=O)N2CCC[C@H]2C(=O)N[C@@H](Cc2cnc[nH]2)C(=O)N[C@@H](CC(C)C)C(=O)N2CCC[C@H]2C(=O)N[C@@H](Cc2c[nH]c3ccccc23)C(=O)N[C@@H](CCO)C(=O)N[C@@H](Cc2c[nH]c3ccccc23)C(=O)N1C` (stereo partly shown) [Example 9047] ({CH2CO}-Y[NMeA]NPHLPW[hSer]W[NMeNle][NMeNle]R[ξC]G-NH2; thioether N-14), in that order: 0.158 to 4.71 nM and 0.385 to 6.74 nM.
`CCCC[C@H]1C(=O)N(C)[C@@H](CCCC)C(=O)N[C@@H](CCCN)C(=O)N[C@H](C(=O)NCC(N)=O)CSCC(=O)N[C@@H](Cc2ccc(O)cc2)C(=O)N2CCCC[C@H]2C(=O)N[C@@H](CC(N)=O)C(=O)N2CCC[C@H]2C(=O)N[C@@H](Cc2cnc[nH]2)C(=O)N[C@@H](CC(C)C)C(=O)N2C[C@H](O)C[C@H]2C(=O)N[C@@H](Cc2c[nH]c3ccccc23)C(=O)N[C@@H](CO)C(=O)N[C@@H](Cc2c[nH]c3ccccc23)C(=O)N1C` [Example 1177]: the IC50 lay in the range of 0.158 to 4.71 nM in assay [1] (cell line of CBA not given (LK35.2-hPD-L1 or 293T-hPD-L1)) and 0.385 to 6.74 nM in assay [2].
As for `CCCC[C@H]1C(=O)N(C)[C@@H](CCCC)C(=O)N[C@@H](CCCNC(=N)N)C(=O)NC(C(=O)NCC(N)=O)CSCC(=O)N[C@@H](Cc2ccc(O)cc2)C(=O)N(C)[C@@H](C)C(=O)N[C@@H](CC(N)=O)C(=O)N2CCC[C@H]2C(=O)N[C@@H](Cc2cnc[nH]2)C(=O)N[C@@H](CC(N)=O)C(=O)N2CCC[C@H]2C(=O)N[C@@H](Cc2c[nH]c3ccccc23)C(=O)N[C@@H](CO)C(=O)N[C@@H](Cc2csc3ccccc23)C(=O)N1C` (stereo partly shown) [Example 9064] ({CH2CO}-Y[NMeA]NPHNPWS[Bta][NMeNle][NMeNle]R[ξC]G-NH2; thioether N-14), the IC50 was in the range of 0.158 to 4.71 nM in assay [1] (setting [3]) and 0.385 to 6.74 nM in assay [2].
Turning to `CCCC[C@H]1C(=O)N2C[C@@H](O)C[C@@H]2C(=O)N[C@@H](CC(N)=O)C(=O)N[C@@H](C(C)C)C(=O)N(C)[C@@H](Cc2ccccc2)C(=O)N[C@@H](Cc2ccc(O)cc2)C(=O)N2CCOC[C@@H]2C(=O)N[C@@H](Cc2c[nH]c3ccccc23)C(=O)N[C@@H](Cc2ccc(O)cc2)C(=O)N[C@@H](CCCN)C(=O)N[C@H](C(=O)NCC(N)=O)CSCC(=O)N[C@@H](Cc2cc(F)c(F)c(F)c2)C(=O)N(C)[C@@H](Cc2ccccc2)C(=O)N1C` [Example 3606] ({CH2CO}-[Phe(3,4,5-F3)][NMeF][NMeNle][dHyp]NV[NMeF]Y[X4]WY[Orn]CG-NH2; thioether N-13), the IC50 in assay [1] (setting [3]) fell in the range of 0.158 to 4.71 nM; in assay [2] it was 0.385 to 6.74 nM.
For the compound `CCCC[C@H]1C(=O)N[C@@H](CCCNC(=N)N)C(=O)N[C@H](C(=O)NCC(N)=O)CSCC(=O)N[C@@H](Cc2ccccc2)C(=O)N(C)[C@@H](C)C(=O)N[C@@H](CC(N)=O)C(=O)N2CCC[C@H]2C(=O)N[C@@H](Cc2cnc[nH]2)C(=O)N[C@@H](CC(C)C)C(=O)N(C)CC(=O)N[C@@H](Cc2c[nH]c3ccccc23)C(=O)N[C@@H](CO)C(=O)N[C@@H](Cc2c[nH]c3ccccc23)C(=O)N(C)[C@@H](COCc2ccccc2)C(=O)N1C` [Example 6013] ({CH2CO}-F[NMeA]NPHL[Sar]WSW[NMeS](Bn)[NMeNle]RCG-NH2; thioether N-14), the IC50 in assay [1] (setting [3]) lay in the range of 4.78 to 72.9 nM; in assay [2] it was 6.76 to 30.3 nM.

For orientation: IC50 means the point on the concentration scale where inhibition reaches its midpoint.
